Data set [1] addresses T1, Xanthine dehydrogenase/oxidase (Bos taurus, UniProt P80457). The experiment in a line: Inhibition of Bovine XO using xanthine as substrate assessed as decrease in uric acid level measured after 10 mins by spectrophotometric analysis.
Data set [2] addresses T1, Xanthine dehydrogenase/oxidase. In words: Inhibition of Bovine XO using xanthine as substrate assessed as decrease in uric acid level by spectrophotometric analysis.
Data set [3] can be described thus: Toxicity in Wistar rat assessed as decrease in serum uric acid level at 1 mg/kg, po measured after 6 hrs. The class given is organism-based. More on the design: scale not given: the % may be the effect or the level left. The following applies: in vivo.
Data set [4] deals with T1, Xanthine dehydrogenase/oxidase. In words: Inhibition of Bovine milk XO measured after 30 mins.
Data set [5] has the same target. In words: Inhibition of Bovine milk XO using xanthine as substrate assessed as decrease in uric acid level pre incubated for 15 mins followed by substrate addition measured after 30 mins by spectrophotometric analysis.
Data set [6] has as its target T2, Xanthine dehydrogenase/oxidase (Homo sapiens, UniProt P47989). The experiment in a line: Inhibition of XO (unknown origin) using xanthine as substrate measured after 10 mins.
Data set [7] deals with T1, Xanthine dehydrogenase/oxidase. The experiment in a line: Inhibition of Bovine milk XO using xanthine as substrate assessed as decrease in uric acid level measured after 15 mins by spectrophotometric analysis.
Data set [8] has the same target. The experiment in a line: Inhibition of Bovine milk XO using xanthine as substrate at 100 uM measured after 10 mins by microplate reader analysis relative to control. The following applies: cattle.
Data set [9] shares this target. In words: Inhibition of Bovine milk XO using xanthine as substrate assessed as decrease in uric acid level measured after 5 mins by spectrophotometric analysis.
The target is the same in data set [10]. The experiment in a line: Inhibition of Bovine XO using xanthine as substrate assessed as decrease in uric acid level preincubated for 15 mins followed by substrate addition measured after 2 mins by spectrophotometric analysis.
Data set [11] has the same target. In words: Inhibition of Bovine milk XO using xanthine as substrate pre incubated for 5 mins followed by substrate addition measured after 30 mins by spectrophotometric analysis.
The target in data set [12] is T3, Xanthine dehydrogenase/oxidase (Mus musculus, UniProt Q00519). In words: Inhibition of mouse serum XO assessed as decrease in uric acid level measured after 2 hrs relative to control.
The target in data set [13] is T3, Xanthine dehydrogenase/oxidase. In words: Inhibition of mouse serum XO assessed as decrease in uric acid level measured after 6 hrs relative to control.
Data set [14] addresses T1, Xanthine dehydrogenase/oxidase. The experiment in a line: Inhibition of Bovine milk XO.
For data set [15], the target named is T2, Xanthine dehydrogenase/oxidase. The experiment in a line: Inhibition of XO (unknown origin) using xanthine as substrate pre incubated for 15 mins followed by substrate addition measured after 30 mins by UV-VIS spectrophotometer analysis.
For data set [16], the target named is T4, Solute carrier family 22 member 12 (Homo sapiens, UniProt Q96S37).
T4 sequence (Q96S37 whole entry): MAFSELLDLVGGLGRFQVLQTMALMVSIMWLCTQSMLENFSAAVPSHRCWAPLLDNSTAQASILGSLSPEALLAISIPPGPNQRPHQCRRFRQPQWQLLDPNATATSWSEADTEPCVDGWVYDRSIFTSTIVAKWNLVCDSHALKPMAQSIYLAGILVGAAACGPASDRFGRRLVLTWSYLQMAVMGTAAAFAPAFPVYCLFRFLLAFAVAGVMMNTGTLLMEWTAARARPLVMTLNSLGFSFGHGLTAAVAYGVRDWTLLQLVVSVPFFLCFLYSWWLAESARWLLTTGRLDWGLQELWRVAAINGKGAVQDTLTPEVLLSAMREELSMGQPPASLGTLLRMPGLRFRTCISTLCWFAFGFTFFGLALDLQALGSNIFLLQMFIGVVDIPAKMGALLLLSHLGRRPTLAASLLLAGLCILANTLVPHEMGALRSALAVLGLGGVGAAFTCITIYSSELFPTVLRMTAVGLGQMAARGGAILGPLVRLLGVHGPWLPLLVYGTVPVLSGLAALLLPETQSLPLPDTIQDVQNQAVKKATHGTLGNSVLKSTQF
In words: Inhibition of human URAT1.

Data set [17] has as its target T2, Xanthine dehydrogenase/oxidase. The experiment in a line: Inhibition of XO (unknown origin) relative to control.
Data set [18] is described as follows: Toxicity in rat assessed as hypouricemic activity at 1 mg/kg. It counts as organism-based. The following applies: in vivo.
The target in data set [19] is T2, Xanthine dehydrogenase/oxidase. In words: Inhibition of XO (unknown origin) using xanthine as substrate measured after 2 to 3 mins by UV-spectrophotometric analysis.
Data set [20] addresses T4, Solute carrier family 22 member 12. In words: Inhibition of URAT1 (unknown origin).
Data set [21] is described as follows: Toxicity in rat assessed as hypouricemic activity at 3 mg/kg measured after 24 hrs. Conditions: in vivo. The class given is organism-based.
In data set [22] the target is T2, Xanthine dehydrogenase/oxidase. In words: Inhibition of XO (unknown origin) using xanthine as substrate assessed as decrease in uric acid level measured after 3 mins by spectrophotometric analysis.
Data set [23] shares this target. In words: Inhibition of XO (unknown origin) using xanthine as substrate pre incubated for 5 mins followed by substrate addition measured after 1 mins by spectrophotometric analysis.
Data set [24] shares this target. In words: Inhibition of XO (unknown origin) using xanthine as substrate pre incubated for 10 mins followed by substrate addition measured after 15 mins.
For data set [25], the target named is T4, Solute carrier family 22 member 12. The experiment in a line: Inhibition of URAT1 (unknown origin) assessed as decrease in uric acid level measured after 15 mins.
Data set [26] deals with T1, Xanthine dehydrogenase/oxidase. The experiment in a line: Inhibition of Bovine milk XO using xanthine as substrate measured after 10 mins by spectrophotometric analysis.
Data set [27] shares this target. The experiment in a line: Inhibition of Bovine milk XO using xanthine as substrate measured after 10 mins by spectrophotometric analysis relative to control. Conditions: cattle.

Where only a bound is given, the exact number is not on record here.

The source of these data is ChEMBL document CHEMBL5356950, “Past, present and future of xanthine oxidase inhibitors: design strategies, structural and pharmacological insights, patents and clinical trials” (RSC Med Chem, 2023).

Broadly, the IC50 is the concentration at which inhibition is half-maximal. Broadly, the inhibition is how much of the control response was suppressed.

T2 sequence (P47989 whole entry): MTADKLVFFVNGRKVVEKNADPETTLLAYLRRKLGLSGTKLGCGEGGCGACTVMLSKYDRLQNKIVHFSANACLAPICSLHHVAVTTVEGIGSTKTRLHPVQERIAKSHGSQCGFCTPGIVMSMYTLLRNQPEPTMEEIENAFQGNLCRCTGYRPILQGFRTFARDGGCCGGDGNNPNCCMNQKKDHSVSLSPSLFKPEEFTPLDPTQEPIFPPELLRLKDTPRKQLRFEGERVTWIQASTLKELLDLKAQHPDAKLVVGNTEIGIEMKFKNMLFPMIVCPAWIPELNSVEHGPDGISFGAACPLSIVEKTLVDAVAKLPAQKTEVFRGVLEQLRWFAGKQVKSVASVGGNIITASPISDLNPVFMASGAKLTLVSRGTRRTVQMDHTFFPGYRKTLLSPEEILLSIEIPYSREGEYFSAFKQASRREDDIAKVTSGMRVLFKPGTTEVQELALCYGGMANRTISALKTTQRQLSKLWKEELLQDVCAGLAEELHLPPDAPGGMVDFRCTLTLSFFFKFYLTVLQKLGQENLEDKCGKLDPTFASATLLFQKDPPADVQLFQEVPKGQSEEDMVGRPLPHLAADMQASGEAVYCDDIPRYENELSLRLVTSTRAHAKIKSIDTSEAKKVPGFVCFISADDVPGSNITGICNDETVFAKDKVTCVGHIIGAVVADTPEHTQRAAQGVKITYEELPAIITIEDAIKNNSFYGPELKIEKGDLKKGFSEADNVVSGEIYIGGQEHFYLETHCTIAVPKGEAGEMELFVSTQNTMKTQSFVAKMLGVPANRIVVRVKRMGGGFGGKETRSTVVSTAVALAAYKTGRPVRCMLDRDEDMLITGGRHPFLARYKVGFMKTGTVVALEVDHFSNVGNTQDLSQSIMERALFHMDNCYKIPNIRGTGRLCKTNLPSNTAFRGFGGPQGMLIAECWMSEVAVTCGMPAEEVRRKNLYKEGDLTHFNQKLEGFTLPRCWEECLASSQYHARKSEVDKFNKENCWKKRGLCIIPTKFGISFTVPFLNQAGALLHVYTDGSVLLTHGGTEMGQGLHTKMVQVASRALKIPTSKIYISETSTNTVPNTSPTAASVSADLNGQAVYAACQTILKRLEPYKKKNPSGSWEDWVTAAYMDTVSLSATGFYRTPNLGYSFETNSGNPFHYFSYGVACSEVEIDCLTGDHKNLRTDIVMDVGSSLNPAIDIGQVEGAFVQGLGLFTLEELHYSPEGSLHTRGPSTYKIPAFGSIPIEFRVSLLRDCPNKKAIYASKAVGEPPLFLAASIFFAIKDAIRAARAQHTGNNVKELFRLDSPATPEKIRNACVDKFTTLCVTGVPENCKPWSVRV
T1 sequence (P80457 whole entry): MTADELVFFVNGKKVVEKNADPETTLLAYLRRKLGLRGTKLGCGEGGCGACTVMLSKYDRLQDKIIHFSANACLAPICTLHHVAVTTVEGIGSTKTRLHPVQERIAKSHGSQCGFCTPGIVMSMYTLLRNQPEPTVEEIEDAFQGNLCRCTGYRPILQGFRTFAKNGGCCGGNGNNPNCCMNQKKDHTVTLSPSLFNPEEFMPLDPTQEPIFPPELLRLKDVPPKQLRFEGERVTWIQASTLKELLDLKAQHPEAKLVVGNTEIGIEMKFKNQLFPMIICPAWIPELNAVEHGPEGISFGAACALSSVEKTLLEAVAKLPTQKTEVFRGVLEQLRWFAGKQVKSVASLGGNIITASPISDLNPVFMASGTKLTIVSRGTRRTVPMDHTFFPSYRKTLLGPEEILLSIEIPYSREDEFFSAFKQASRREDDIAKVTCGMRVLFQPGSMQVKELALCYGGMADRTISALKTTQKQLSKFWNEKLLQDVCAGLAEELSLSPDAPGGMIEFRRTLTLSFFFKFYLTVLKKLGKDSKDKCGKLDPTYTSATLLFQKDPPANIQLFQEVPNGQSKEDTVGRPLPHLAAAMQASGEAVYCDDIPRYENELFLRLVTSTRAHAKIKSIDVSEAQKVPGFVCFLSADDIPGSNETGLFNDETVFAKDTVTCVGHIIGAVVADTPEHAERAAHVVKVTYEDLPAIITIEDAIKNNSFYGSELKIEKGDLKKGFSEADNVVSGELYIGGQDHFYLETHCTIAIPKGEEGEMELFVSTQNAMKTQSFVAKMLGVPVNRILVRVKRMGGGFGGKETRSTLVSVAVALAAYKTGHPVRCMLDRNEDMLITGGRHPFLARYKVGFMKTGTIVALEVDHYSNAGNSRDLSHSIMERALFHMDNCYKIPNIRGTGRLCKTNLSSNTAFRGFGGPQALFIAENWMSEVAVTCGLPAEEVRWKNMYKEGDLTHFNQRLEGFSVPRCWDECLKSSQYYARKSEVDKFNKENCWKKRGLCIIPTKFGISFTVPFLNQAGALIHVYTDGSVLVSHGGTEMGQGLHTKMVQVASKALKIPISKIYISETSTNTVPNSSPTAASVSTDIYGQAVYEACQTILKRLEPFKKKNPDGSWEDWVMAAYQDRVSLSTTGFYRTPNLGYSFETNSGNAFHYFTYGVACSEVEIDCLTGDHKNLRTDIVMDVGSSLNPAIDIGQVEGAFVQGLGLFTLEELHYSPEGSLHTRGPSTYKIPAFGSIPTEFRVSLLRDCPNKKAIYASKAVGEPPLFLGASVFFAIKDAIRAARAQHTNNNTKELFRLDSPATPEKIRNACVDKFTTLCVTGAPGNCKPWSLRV
T3 sequence (Q00519 whole entry): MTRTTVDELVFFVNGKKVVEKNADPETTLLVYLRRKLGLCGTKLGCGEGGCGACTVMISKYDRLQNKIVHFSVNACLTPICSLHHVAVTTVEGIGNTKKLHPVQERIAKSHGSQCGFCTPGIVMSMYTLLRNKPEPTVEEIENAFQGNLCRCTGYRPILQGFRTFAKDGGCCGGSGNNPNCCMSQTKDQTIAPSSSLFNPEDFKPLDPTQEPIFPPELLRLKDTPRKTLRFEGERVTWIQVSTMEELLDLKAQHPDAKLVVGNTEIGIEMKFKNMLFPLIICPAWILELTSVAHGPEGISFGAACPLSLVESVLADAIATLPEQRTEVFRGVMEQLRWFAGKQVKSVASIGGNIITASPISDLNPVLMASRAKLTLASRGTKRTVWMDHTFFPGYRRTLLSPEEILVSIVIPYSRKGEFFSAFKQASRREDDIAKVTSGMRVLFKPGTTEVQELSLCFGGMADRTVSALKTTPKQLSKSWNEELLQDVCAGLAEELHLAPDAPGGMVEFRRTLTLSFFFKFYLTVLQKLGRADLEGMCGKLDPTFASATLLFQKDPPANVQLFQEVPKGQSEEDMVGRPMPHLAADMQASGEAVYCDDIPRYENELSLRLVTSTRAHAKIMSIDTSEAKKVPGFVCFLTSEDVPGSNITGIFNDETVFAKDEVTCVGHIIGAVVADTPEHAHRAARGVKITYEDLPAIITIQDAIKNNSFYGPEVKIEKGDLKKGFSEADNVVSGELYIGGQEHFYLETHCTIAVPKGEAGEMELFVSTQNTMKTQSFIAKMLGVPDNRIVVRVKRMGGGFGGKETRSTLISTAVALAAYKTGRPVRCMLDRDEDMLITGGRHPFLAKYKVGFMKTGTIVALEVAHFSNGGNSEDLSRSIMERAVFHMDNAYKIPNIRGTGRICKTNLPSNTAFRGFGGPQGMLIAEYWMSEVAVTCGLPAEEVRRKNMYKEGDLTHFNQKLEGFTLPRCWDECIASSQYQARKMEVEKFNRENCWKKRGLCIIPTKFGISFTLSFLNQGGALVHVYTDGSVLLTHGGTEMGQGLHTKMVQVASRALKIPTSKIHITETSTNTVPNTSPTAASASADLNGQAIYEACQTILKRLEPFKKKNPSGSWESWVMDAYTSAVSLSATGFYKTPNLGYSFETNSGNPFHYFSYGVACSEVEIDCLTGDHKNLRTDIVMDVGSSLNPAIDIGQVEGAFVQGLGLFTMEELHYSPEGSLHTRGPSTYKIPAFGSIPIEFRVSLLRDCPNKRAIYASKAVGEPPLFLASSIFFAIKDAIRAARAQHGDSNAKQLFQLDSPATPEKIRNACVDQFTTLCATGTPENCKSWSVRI

Consider `O=C(NC(Cc1ccccc1)C(=O)O)c1ccc2c(c1)C(=O)c1ccccc1C2=O` (stereo unspecified), for which the IC50 in data set [1] amounted to 2.9 µM.

For `O=C(O)c1ccc2c(c1)C(=O)N(c1ccccc1)C2=O`, in data set [2], the IC50 worked out at 7.15 µM.

Turning to `Cc1cc(-c2n[nH]c(-c3ccc(OCC(C)C)c(C#N)c3)n2)ccn1`, the Activity in [3] is on record as 67.5%.

For `Cc1nc(-c2cc(C#N)c3c(c2)CC2(CCCCC2)O3)sc1C(=O)O`, half-maximal inhibition in data set [4] (IC50) required 0.0014 µM.

`Cc1nc(-c2cc(C#N)c3c(c2)CCC(C)(C)O3)sc1C(=O)O`: the IC50 in [4] came to 0.00265 µM.

Turning to `Nn1c(S)nnc1-c1cc(-c2ccccc2)nn1Cc1ccccc1`, the IC50 in data set [5] turned out to be 65.4 µM.

For the compound `COC(=O)[C@H]1C[C@@H](n2cc(-c3ccccc3)nn2)[C@H](O)C[C@H]1C(=O)OC`, half-maximal inhibition in data set [6] (IC50) was put at 0.586 µM.

For the compound `O=C(/C=C/c1cc(O)cc(O)c1)c1ccc(O)cc1O`, in [7], the IC50 turned out to be 22.5 µM.

On to `N#Cc1cn(-c2ccc(C(=O)O)c(O)c2)cc1-c1cccs1`, for which the inhibition at 100 µM in data set [8] is above 90%.

As to `O=c1oc2cc(O)cc(O)c2cc1-c1cccc(O)c1`, the concentration for half-maximal inhibition (IC50) in data set [9] stood at 2.13 µM.

Turning to `O=c1[nH]c(-c2ccc(OCC3CCCCC3)c(-n3cnnn3)c2)no1`, in [10], the IC50 was 0.121 µM.

Turning to `Cc1nn(-c2ccc(OCCC(C)C)c(C#N)c2)nc1C(=O)O`, the midpoint of inhibition in data set [11], the IC50, lay at 0.084 µM.

`Oc1ncnc2[nH]ncc12` [ALLOPURINOL]: the “inhibition (INH)” value in data set [12] is given as 33%; in data set [13] it was 14%.

Turning to `Cc1cc(-c2nc(-c3ccc(OCC(C)C)c([N+](=O)[O-])c3)n[nH]2)ccn1`, in [3], the Activity came out at 66.5%.

On to `Cc1cc(C)c(C[n+]2cn(CCO)c3ccccc32)c(C)c1`, for which the IC50 in data set [6] stood at 1.25 µM.

The compound `OCc1ccc(O)c(O)c1` had a half-maximal inhibitory concentration (IC50) in [14] of 3 µM.

`COCOc1cccc(-c2c[nH]cc2C#N)c1`: in [8], the inhibition at 100 µM is above 90%.

For `O=Cc1ccc(C2Nc3ccccc3-c3cc(-c4ccccc4)nn32)c([N+](=O)[O-])c1` (stereo unspecified), the IC50 in [15] was found to be 11 µM.

On to `COc1cc(OC)c(C(=O)/C=C/c2ccccc2F)c(O)c1C(=O)/C=C/c1ccccc1F`, for which the half-inhibitory concentration (IC50) in [1] is 0.728 µM.

Regarding `Cc1nc(-c2cc(C#N)c3c(c2)CC2(CCCC2)O3)[se]c1C(=O)O`, half-maximal inhibition in data set [4] (IC50) required 0.00158 µM.

`Cc1nc(-c2cc(C#N)c3c(c2)CCC(C)(C)O3)[se]c1C(=O)O` came in with a 50% inhibitory concentration (IC50) in data set [4] of 0.00236 µM.

In [16], `COC(=O)C(Sc1nnc(Br)n1-c1ccc(Br)c2ccccc12)C(=O)OC` registered a half-maximal inhibitory concentration (IC50) of 0.0197 µM.

In turn, `CCOC(=O)c1sc(-c2cc(I)c3c(c2)CCC(C)(C)O3)nc1C` yielded a concentration for half-maximal inhibition (IC50) in data set [4] of 0.0013 µM.

In turn, `CCCCc1cn(-c2ccc(C(=O)O)c(O)c2)cc1C#N` came in with an inhibition at 100 µM in [8] above 90%.

In the case of `Clc1cc2nc(-c3ccncc3)[nH]c2cc1Cl`, the “inhibition (INH)” value in data set [17] was 56%.

For the compound `Cc1nc(-c2ccc(OC(C)C)c(-n3cnnn3)c2)sc1C(=O)O`, the Activity in [18] is 50%.

On to `COc1ccc([C@@H]2C/C(=N\c3ccc([N+](=O)[O-])cc3Cl)C3C(O)=CC(O[C@H]4C[C@@H](OC5O[C@H](C)[C@@H](O)[C@H](O)C5O)[C@H](O)[C@@H](O)[C@@H]4O)=CC3O2)cc1O` (stereo partly specified), for which, in [19], the IC50 came out at 0.263 µM.

In data set [20], `O=C(Nc1ccc(-c2nnn[nH]2)cc1)c1c(O)[nH]c(=S)[nH]c1=O` gave a concentration for half-maximal inhibition (IC50) of 0.39 µM.

Consider `Cc1nc(-c2ccc(OCC(C)(C)C)c(-n3cnnn3)c2)sc1C(=O)O`, for which the Activity in data set [18] turned out to be 50%; in data set [21], 40%.

Consider `COc1ccc2c(c1)c(CC(=O)O)c(C)n2C(=O)c1ccc(Cl)cc1` [INDOMETHACIN], for which, in [22], the concentration for half-maximal inhibition (IC50) is 86 µM.

Compound `COc1ccc(-c2cc3cc([N+](=O)[O-])ccc3oc2=O)cc1` came in with a half-inhibitory concentration (IC50) in data set [23] of 8.4 µM.

Turning to `O=C1CC(c2ccccc2)Oc2c3c(c(CO)c(O)c21)OCN(c1ccc(F)cc1)C3` (stereo unspecified), the “inhibition (INH)” value in data set [17] turned out to be 84.27%.

With `CN1C(=O)C(=Cc2ccc(Cl)cc2Cl)C(=O)N(C)C1=O`, in data set [24], the concentration for half-maximal inhibition (IC50) was found to be 21000 µM.

For the compound `N#Cc1ccc(NS(=O)(=O)c2ccccc2OC(F)(F)F)cc1Cl`, in [25], the half-inhibitory concentration (IC50) came out at 0.006 µM.

In the case of `O=[N+]([O-])c1ccc(CSc2nnc(-c3cc(-c4ccccc4)nn3Cc3ccccc3)o2)cc1`, the IC50 in data set [5] is 72.4 µM.

As for `Cc1nc(-c2cc(I)c3c(c2)CCC(C)(C)O3)sc1C(=O)O`, the IC50 in [4] was determined as 0.00187 µM.

For `CCC1(C)Cc2cc(-c3nc(C)c(C(=O)O)s3)cc(C#N)c2O1` (stereo unspecified), inhibition in data set [4] was half-maximal at 0.00135 µM (IC50).

In data set [4], `Cc1nc(-c2cc(C#N)c3c(c2)CC(C)O3)sc1C(=O)O` (stereo unspecified) registered a half-inhibitory concentration (IC50) of 0.00184 µM.

With `Cc1nc(-c2ccc(OCC(C)C)c(-n3cnnn3)c2)sc1C(=O)O`, the Activity in data set [18] amounted to 50%; in data set [21] it was 40%.

Turning to `O=[N+]([O-])c1cc(C2=NC3=CN=CN(O)C3S2)ccc1Oc1ccccc1F` (stereo unspecified), the IC50 in data set [26] was 0.0054 µM.

For `N#Cc1c(Cl)cc(NS(=O)(=O)c2ccccc2OC(F)(F)F)cc1Cl`, the IC50 in [25] worked out at 0.004 µM.

In data set [26], `Cc1ccc2c(-c3ccc(C(=O)O)c(O)c3)cc(C#N)n2n1` showed a concentration for half-maximal inhibition (IC50) of 0.003 µM. Moreover, the “inhibition (INH)” value in data set [27] amounted to 60%.
